# System: ADP-induced human platelet aggregation
# Assay: Inhibition of ADP-mediated platelet aggregation in vitro using platelet-rich plasma (PRP assay)
# Assay type: cell-based
# Conditions: 5 min; human platelet-rich plasma, 2 μM ADP, 96-well microtiter, OD 650 nm at 5 min; read-out: Activity in the PRP assay
# Protocol: This Example Provides an Assay for the Inhibition of ADP-Mediated Platelet Aggregation In Vitro Using Platelet-Rich Plasma (PRP)
# Platelet-rich plasma (PRP) is prepared by centrifugation at 160×g for 20 minutes at room temperature. PRP is collected, and the platelet concentration is determined using a Coulter counter or hemocytometer (platelet concentration should be 2-4×10^8 platelets per mL).
# Inhibition of ADP-dependent aggregation is preferably determined in 96-well flat-bottom microtiter plates using a microtiter plate shaker and plate reader similar to the procedure described by Frantantoni et al., Am. J. Clin. Pathol. […] All steps are performed at room temperature. The total reaction volume of 0.2 mL/well includes: PRP (˜6×10^7 total platelets in the presence of plasma), serial dilutions of test compounds (buffer for control wells) in 0.6% DMSO. After about 5 minutes preincubation at room temperature, ADP is added to a final concentration of 2 μM which induces submaximal aggregation. Buffer is added instead of ADP to one set of control wells (ADP-control). The OD of the samples is then determined at 650 nm using a microtiter plate reader (Softmax, Molecular Devices, Menlo Park, Calif.) resulting in the 0 minute reading. The plates are then agitated for 5 min on a microtiter plate shaker and the 5 minute reading is obtained in the plate reader. Aggregation is calculated from the decrease of OD at 650 nm at t=5 minutes compared to t=0 minutes and is expressed as % of the decrease in the ADP control samples after correcting for changes in the unaggregated control samples.
row,SMILES,IC50
1,"CNc1cc2ccn(-c3ccc(NC(=O)NS(=O)(=O)c4ccc(Cl)s4)cc3)c(=O)c2cc1F [Example 10, 5-chloro-N-[({4-[7-fluoro-6-(methylamino)-1-oxoisoquinolin-2(1H)-yl]phenyl}amino)carbonyl]thiophene-2-sulfonamide]",< 10 µM
2,"O=C(Nc1ccc(-n2ccc3cc(NC4CC4)c(F)cc3c2=O)cc1)NS(=O)(=O)c1ccc(Cl)s1 [Example 13, 5-chloro-N-[({4-[6-(cyclopropylamino)-7-fluoro-1-oxoisoquinolin-2(1H)-yl]phenyl}amino)carbonyl]thiophene-2-sulfonamide]",10 to 30 µM
3,"O=CNc1cc2ccn(-c3ccc(NC(=O)NS(=O)(=O)c4ccc(Cl)s4)cc3)c(=O)c2cc1F [Example 14, 5-chloro-N-[({4-[7-fluoro-6-(formylamino)-1-oxoisoquinolin-2(1H)-yl]phenyl}amino)carbonyl]thiophene-2-sulfonamide]",> 30 µM
4,"O=C(Nc1ccc(-n2ccc3cc(NCCF)c(F)cc3c2=O)cc1)NS(=O)(=O)c1ccc(Cl)s1 [Example 20, 5-chloro-N-[({4-[7-fluoro-6-[(2-fluoroethyl)amino]-1-oxoisoquinolin-2(1H)-yl]phenyl}amino)carbonyl]thiophene-2-sulfonamide]",< 10 µM
5,"O=C(Nc1ccc(-n2ccc3cc(NCC(F)(F)F)c(F)cc3c2=O)cc1)NS(=O)(=O)c1ccc(Cl)s1 [Example 21, 5-chloro-N-[({4-[7-fluoro-1-oxo-6-[(2,2,2-trifluoroethyl)amino]isoquinolin-2(1H)-yl]phenyl}amino)carbonyl]thiophene-2-sulfonamide]",10 to 30 µM
6,"C#CCNc1cc2ccn(-c3ccc(NC(=O)NS(=O)(=O)c4ccc(Cl)s4)cc3)c(=O)c2cc1F [Example 22, 5-chloro-N-[({4-[7-fluoro-1-oxo-6-(prop-2-ynylamino)isoquinolin-2(1H)-yl]phenyl}amino)carbonyl]thiophene-2-sulfonamide]",< 10 µM
7,"O=C(Nc1ccc(-n2ccc3cc(NCc4ccc(Cl)cc4)c(F)cc3c2=O)cc1)NS(=O)(=O)c1ccc(Cl)s1 [Example 23, 5-chloro-N-[({4-[6-[(4-chlorobenzyl)amino]-7-fluoro-1-oxoisoquinolin-2(1H)-yl]phenyl}amino)carbonyl]thiophene-2-sulfonamide]",< 10 µM
8,"CN(C)c1cc2ccn(-c3ccc(NC(=O)NS(=O)(=O)c4ccc(Cl)s4)cc3)c(=O)c2cc1F [Example 26, 5-chloro-N-[({4-[6-(dimethylamino)-7-fluoro-1-oxoisoquinolin-2(1H)-yl]phenyl}amino)carbonyl]thiophene-2-sulfonamide]",> 30 µM
9,"CNc1cc2ccn(-c3ccc(NC(=O)NS(=O)(=O)c4cccs4)cc3)c(=O)c2cc1F [Example 27, N-[({4-[7-fluoro-6-(methylamino)-1-oxoisoquinolin-2(1H)-yl]phenyl}amino)carbonyl]thiophene-2-sulfonamide]",< 10 µM
10,"CNc1cc2ccn(-c3ccc(NC(=O)NS(=O)(=O)c4ccc(Br)s4)cc3)c(=O)c2cc1F [Example 28, 5-bromo-N-[({4-[7-fluoro-6-(methylamino)-1-oxoisoquinolin-2(1H)-yl]phenyl}amino)carbonyl]thiophene-2-sulfonamide]",< 10 µM
11,CNc1cc2ccn(-c3ccc(NC(=O)NS(=O)(=O)c4ccc(C)s4)cc3)c(=O)c2cc1F [Example 29],< 10 µM
12,CCc1ccc(S(=O)(=O)NC(=O)Nc2ccc(-n3ccc4cc(NC)c(F)cc4c3=O)cc2)s1 [Example 30],< 10 µM
13,CCCc1ccc(S(=O)(=O)NC(=O)Nc2ccc(-n3ccc4cc(NC)c(F)cc4c3=O)cc2)s1 [Example 31],10 to 30 µM
14,CNc1cc2ccn(-c3ccc(NC(=O)NS(=O)(=O)c4ccc(C(F)F)s4)cc3)c(=O)c2cc1F [Example 32],< 10 µM
15,CNc1cc2ccn(-c3ccc(NC(=O)NS(=O)(=O)c4ccc(C#N)s4)cc3)c(=O)c2cc1F [Example 33],10 to 30 µM
16,CNc1cc2ccn(-c3ccc(NC(=O)NS(=O)(=O)c4ccc(OC)s4)cc3)c(=O)c2cc1F [Example 34],< 10 µM
17,C#Cc1ccc(S(=O)(=O)NC(=O)Nc2ccc(-n3ccc4cc(NC)c(F)cc4c3=O)cc2)s1 [Example 35],< 10 µM

row,SMILES,IC50
1,CNc1cc2ccn(-c3ccc(NC(=O)NS(=O)(=O)c4cc(Cl)cs4)cc3)c(=O)c2cc1F [Example 37],< 10 µM
2,CNc1cc2ccn(-c3ccc(NC(=O)NS(=O)(=O)c4cc(C)cs4)cc3)c(=O)c2cc1F [Example 38],< 10 µM
3,CNc1cc2ccn(-c3ccc(NC(=O)NS(=O)(=O)c4cc(C(F)F)cs4)cc3)c(=O)c2cc1F [Example 39],10 to 30 µM
4,CNc1cc2ccn(-c3ccc(NC(=O)NS(=O)(=O)c4sccc4Cl)cc3)c(=O)c2cc1F [Example 40],> 30 µM
5,CNc1cc2ccn(-c3ccc(NC(=O)NS(=O)(=O)c4sccc4C)cc3)c(=O)c2cc1F [Example 41],10 to 30 µM
6,CNc1cc2ccn(-c3ccc(NC(=O)NS(=O)(=O)c4ccccc4)cc3)c(=O)c2cc1F [Example 42],< 10 µM
7,"CNc1cc2ccn(-c3ccc(NC(=O)NS(=O)(=O)c4ccc(Cl)s4)cc3F)c(=O)c2cc1F [Example 49, 5-chloro-N-[({3-fluoro-4-[7-fluoro-6-(methylamino)-1-oxoisoquinolin-2(1H)-yl]phenyl}amino)carbonyl]thiophene-2-sulfonamide]",< 10 µM
8,"CNc1cc2ccn(-c3ccc(NC(=O)NS(=O)(=O)c4ccc(Cl)s4)cc3Cl)c(=O)c2cc1F [Example 50, 5-chloro-N-[({3-chloro-4-[7-fluoro-6-(methylamino)-1-oxoisoquinolin-2(1H)-yl]phenyl}amino)carbonyl]thiophene-2-sulfonamide]",< 10 µM
9,"CNc1cc2ccn(-c3ccc(NC(=O)NS(=O)(=O)c4ccc(Cl)s4)cc3Br)c(=O)c2cc1F [Example 51, N-[({3-bromo-4-[7-fluoro-6-(methylamino)-1-oxoisoquinolin-2(1H)-yl]phenyl}amino)carbonyl]-5-chlorothiophene-2-sulfonamide]",< 10 µM
10,"CNc1cc2ccn(-c3ccc(NC(=O)NS(=O)(=O)c4ccc(Cl)s4)cc3C)c(=O)c2cc1F [Example 52, 5-chloro-N-[({4-[7-fluoro-6-(methylamino)-1-oxoisoquinolin-2(1H)-yl]-3-methylphenyl}amino)carbonyl]thiophene-2-sulfonamide]",< 10 µM
11,"CNc1cc2ccn(-c3ccc(NC(=O)NS(=O)(=O)c4ccc(Cl)s4)c(C)c3)c(=O)c2cc1F [Example 53, 5-chloro-N-[({4-[7-fluoro-6-(methylamino)-1-oxoisoquinolin-2(1H)-yl]-2-methylphenyl}amino)carbonyl]thiophene-2-sulfonamide]",< 10 µM
12,"CNc1cc2ccn(-c3ccc(NC(=O)NS(=O)(=O)c4ccc(Cl)s4)cn3)c(=O)c2cc1F [Example 54, 5-chloro-N-[({6-[7-fluoro-6-(methylamino)-1-oxoisoquinolin-2(1H)-yl]pyridin-3-yl}amino)carbonyl]thiophene-2-sulfonamide]",< 10 µM
13,"CNc1cc2ccn(-c3ccc(NC(=O)NS(=O)(=O)c4ccc(Cl)s4)c(C)n3)c(=O)c2cc1F [Example 55, 5-chloro-N-[({6-[7-fluoro-6-(methylamino)-1-oxoisoquinolin-2(1H)-yl]-2-methylpyridin-3-yl}amino)carbonyl]thiophene-2-sulfonamide]",< 10 µM
14,"CNc1cc2ccn(-c3cc(C)c(NC(=O)NS(=O)(=O)c4ccc(Cl)s4)cn3)c(=O)c2cc1F [Example 56, 5-chloro-N-[({6-[7-fluoro-6-(methylamino)-1-oxoisoquinolin-2(1H)-yl]-4-methylpyridin-3-yl}amino)carbonyl]thiophene-2-sulfonamide]",< 10 µM
15,"CNc1cc2ccn(-c3ncc(NC(=O)NS(=O)(=O)c4ccc(Cl)s4)cc3C)c(=O)c2cc1F [Example 57, 5-chloro-N-[({6-[7-fluoro-6-(methylamino)-1-oxoisoquinolin-2(1H)-yl]-5-methylpyridin-3-yl}amino)carbonyl]thiophene-2-sulfonamide]",> 30 µM
16,"CNc1cc2ccn(-c3ccc(NC(=O)NS(=O)(=O)c4ccc(Cl)s4)c(F)c3)c(=O)c2cc1F [Example 58, 5-chloro-N-[({2-fluoro-4-[7-fluoro-6-(methylamino)-1-oxoisoquinolin-2(1H)-yl]phenyl}amino)carbonyl]thiophene-2-sulfonamide]",< 10 µM
17,"CNc1cc2ccn(-c3ccc(NC(=O)NS(=O)(=O)c4ccc(Cl)s4)nc3)c(=O)c2cc1F [Example 59, 5-chloro-N-[({5-[7-fluoro-6-(methylamino)-1-oxoisoquinolin-2(1H)-yl]pyridin-2-yl}amino)carbonyl]thiophene-2-sulfonamide]",< 10 µM

# Same assay, conditions: Homo sapiens, Platelet, 5 min, read-out: Activity in the PRP assay
row,SMILES,IC50
1,"CCNc1cc2ccn(-c3ccc(NC(=O)NS(=O)(=O)c4ccc(Cl)s4)cc3)c(=O)c2cc1F [Example 19, 5-chloro-N-[({4-[6-(ethylamino)-7-fluoro-1-oxoisoquinolin-2(1H)-yl]phenyl}amino)carbonyl]thiophene-2-sulfonamide]",< 10 µM

# Reference: patent publication US7294635B2 (Portola Pharmaceuticals, Inc., priority 2003, dated 2007)
